{"source": "PubChem BioAssay AID1963442", "about": "(Molecular Pharmacology Branch, DTP, NCI, 2024)", "system": "MPNST complex spheroid with HUVEC/MSC, growth, % test/control", "experiment": "Anticancer human tumor MPNST cell line growth inhibition [Asc];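 further: compounds left on spheroids for seven days before reading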", "details": "for viability, T/C: stronger effect = lower value", "experimental": "Multicellular complex tumor spheroid response to apoptosis pathway targeting inhibitors Alrizomadlin, Pelcitoclax, and Dasminapant in combination with a variety of drugs and investigational agents in selected tumor cell lines\nThe MDM2 inhibitor alrizomadlin, the Bcl-2/Bcl-xL inhibitor pelcitoclax, and the IAPs inhibitor dasminapant were evaluated both individually and in combination with standard of care and investigational anticancer small molecules within a complex spheroid model of solid tumors. . Complex spheroids include a stromal component modeled by human endothelial cells (HUVEC) and fibroblasts modeled by human mesenchymal stem cells (MSCs). The concentration ranges selected for each drug and investigational agent were based upon clinically achievable concentrations if the clinical Cmax of the agent was known.\nCompounds. The drugs and investigational agents: alrizomadlin (APG-115; NSC831270), pelcitoclax (APG-1252; NSC835773), dasminapant (APG-1387;NSC834197), TAK-243 (NSC785004), copanlisib (NSC809693), olaparib (NSC753686), talazoparib (NSC767125), cobimetinib (NSC 768068), eltanexor (KPT-8602, NSC 794443), abemaciclib (NSC 768073), sotorasib (NSC818433), adagrasib (NSC 831453), MRTX-1133 (NSC 836407), Iadademestat (ORY1001, NSC 806812), and RMC-4630 (NSC839698), were obtained from the NCI Developmental Therapeutics Program Chemical Repository. The FDA-approved anticancer drug set is available from the Developmental Therapeutics Program at https://dtp.cancer.gov/organization/dscb/obtaining/available plates.htm. […] The stock solutions were prepared in dimethyl sulfoxide (DMSO, Sigma-Aldrich, St. Louis, MO, cat. D2650) at 800-fold the tested concentration and stored at -70 degrees C prior to their use. All drugs and investigational agents were tested over a range starting from a high concentration at or near the clinical Cmax and decreasing in half-log increments. If the clinical Cmax for an agent had not been determined, the highest concentration tested was 10 microM.\nThe patient-derived cancer (PDC) cell lines include five colon adenocarcinomas: 186277-243-T-J2-PDC, 616215-338-R-J1-PDC, 439559-082-T-J2-PDC, 463943-066-T-J2-PDC, and 519858-162-T-J1-PDC; three pancreatic carcinomas: 323965-272-R-J2-PDC, 521955-158-R6-J3-PDC, and 521955-158-R2-J5-PDC; two uterine sarcomas: 327498-152-R-J2-PDC and 993429-296-R-J1-PDC; two rhabdomyosarcomas: 755483-174-R-J1-PDC and 772245-204-R-J1-PDC; two soft tissue sarcomas: 126254-015-R-J1-PDC and 494315-158-R-J1-PDC; two malignant fibrous histiocytomas: 317291-083-R-J1-PDC and 596521-263-R-J1-PDC; two breast carcinomas: 171881-019-R-J1-PDC and 885512-296-R-J2-PDC; and one ovarian carcinoma: 6556581-035-R-J-PDC were obtained from the NCI PDMR, (https://pdmr.cancer.gov). The established cell lines HSSY-2 synovial sarcoma (RRID:CVCL 8719), SYO-1 synovial sarcoma (RRID:CVCL_7146), MPNST malignant peripheral neural sheath tumor were obtained from the Sloan Kettering Institute. The following established cell lines were purchased from the American Type Culture Collection (ATCC, Manassas, VA), Sor the received from the NCI repository:, PANC-1 pancreatic carcinoma (CRL-1469, RRID:CVCL_0480), OVCAR-5 ovarian carcinoma (RRID:CVCL_1628), OVCAR-8 ovarian carcinoma (RRID:CVCL_1629), , MCF-7 breast carcinoma (CRL-12584, RRID:CVCL_0031), MDA-MB-231 breast carcinoma (CRL-12532, RRID:CVCL_0062), NCI-H1876 small cell lung carcinoma (CRL-5902, RRID:CVCL_1503), NCI-H510A small cell lung carcinoma (HTB-184, RRID:CVCL_1565), NCI-H1417 (CRL-5869, RRID:CVCL_1469), and NCI-H196 small cell lung carcinoma (CRL-5823, RRID:CVCL_1509). Dr. Peter Houghton (Greehey Children's Cancer Research Institute, University of Texas Health Science Center, San Antonio, TX) provided Rh-18 rhabdomyosarcoma (RRID:CVCL_1659). Pooled donor human umbilical vein endothelial cells (HUVEC, Lonza, cat. CC-2519) and human mesenchymal stem cells (hMSC, Lonza, cat. PT-2501) were purchased from Lonza (Walkersville, MD).\nCell Culture. […]", "note": "pIC50: −log10 of the molar value. Values joined by “and” are separate entries in the source; they are usually repeats but may differ in a detail not shown here. Equal values may be shown once."}
{"smiles": "NC1CCC(NC2CC2c2ccccc2)CC1", "note": "(stereo unspecified)", "values": [{"measurement": "viability, T/C", "setting": "compound 0.000316 µM", "result": "78.8% and 74.6% and 64.2%"}, {"measurement": "viability, T/C", "setting": "compound 0.001 µM", "result": "78.6% and 79.4% and 71.8%"}, {"measurement": "viability, T/C", "setting": "compound 0.00316 µM", "result": "76.3% and 81% and 80.4%"}, {"measurement": "viability, T/C", "setting": "compound 0.01 µM", "result": "74% and 88.9% and 68.4%"}, {"measurement": "viability, T/C", "setting": "compound 0.0316 µM", "result": "83.4% and 76.8% and 64.2%"}, {"measurement": "viability, T/C", "setting": "compound 0.1 µM", "result": "78.2% and 98.4% and 47.2%"}, {"measurement": "pIC50", "setting": "curve of compound", "result": "< 7.00 and 7.08"}]}
{"smiles": "O=C(c1cc(Cc2n[nH]c(=O)c3ccccc23)ccc1F)N1CCN(C(=O)C2CC2)CC1", "values": [{"measurement": "viability, T/C", "setting": "compound 0.0316 µM", "result": "89.3% and 114% and 79.2%"}, {"measurement": "viability, T/C", "setting": "compound 0.1 µM", "result": "103% and 78.6% and 69.5%"}, {"measurement": "viability, T/C", "setting": "compound 0.316 µM", "result": "109% and 60.3% and 96.9%"}, {"measurement": "viability, T/C", "setting": "compound 1 µM", "result": "83.9% and 63.7% and 82.7%"}, {"measurement": "viability, T/C", "setting": "compound 3.16 µM", "result": "71.8% and 70.9% and 40.7%"}, {"measurement": "viability, T/C", "setting": "compound 10 µM", "result": "77.1% and 48.1% and 34.8%"}, {"measurement": "pIC50", "setting": "curve of compound", "result": "< 5.00 and 5.61"}]}
{"smiles": "O=C(c1ccc(F)c(F)c1Nc1ccc(I)cc1F)N1CC(O)([C@@H]2CCCCN2)C1", "values": [{"measurement": "viability, T/C", "setting": "compound 0.00316 µM", "result": "100% and 84.6% and 73.2%"}, {"measurement": "viability, T/C", "setting": "compound 0.01 µM", "result": "60.5% and 110% and 78.5%"}, {"measurement": "viability, T/C", "setting": "compound 0.0316 µM", "result": "58.9% and 123% and 126%"}, {"measurement": "viability, T/C", "setting": "compound 0.1 µM", "result": "65.1% and 103% and 84.6%"}, {"measurement": "viability, T/C", "setting": "compound 0.316 µM", "result": "67.3% and 72% and 85.4%"}, {"measurement": "viability, T/C", "setting": "compound 1 µM", "result": "13.1% and 29.3% and 32.3%"}, {"measurement": "pIC50", "setting": "curve of compound", "result": "6.35 and 6.24 and 6.17"}]}
{"smiles": "O=C(c1cc(Cc2n[nH]c(=O)c3ccccc23)ccc1F)N1CCN(C(=O)C2CC2)CC1", "note": "+ CCN1C(C(=O)NC23CCC(C(=O)O)(CC2)CC3)C(c2cccc(Cl)c2F)C2(C(=O)Nc3cc(Cl)ccc32)C12CCCCC2", "values": [{"measurement": "pIC50", "setting": "curve of first compound, second compound 0.03 µM", "result": "< 5.00"}, {"measurement": "pIC50", "setting": "curve of first compound, second compound 0.0949 µM", "result": "< 5.00"}, {"measurement": "pIC50", "setting": "curve of first compound, second compound 0.3 µM", "result": "< 5.00"}, {"measurement": "pIC50", "setting": "curve of first compound, second compound 0.949 µM", "result": "< 5.00"}, {"measurement": "pIC50", "setting": "curve of first compound, second compound 3 µM", "result": "< 5.00"}, {"measurement": "viability, T/C", "setting": "second compound 0.03 µM, first compound 0.0316 µM", "result": 122, "unit": "%"}, {"measurement": "viability, T/C", "setting": "second compound 0.03 µM, first compound 0.1 µM", "result": 113, "unit": "%"}, {"measurement": "viability, T/C", "setting": "second compound 0.03 µM, first compound 0.316 µM", "result": 101, "unit": "%"}, {"measurement": "viability, T/C", "setting": "second compound 0.03 µM, first compound 1 µM", "result": 80.6, "unit": "%"}, {"measurement": "viability, T/C", "setting": "second compound 0.03 µM, first compound 3.16 µM", "result": 65.8, "unit": "%"}, {"measurement": "viability, T/C", "setting": "second compound 0.03 µM, first compound 10 µM", "result": 50.1, "unit": "%"}, {"measurement": "viability, T/C", "setting": "second compound 0.0949 µM, first compound 0.0316 µM", "result": 141, "unit": "%"}, {"measurement": "viability, T/C", "setting": "second compound 0.0949 µM, first compound 0.1 µM", "result": 115, "unit": "%"}, {"measurement": "viability, T/C", "setting": "second compound 0.0949 µM, first compound 0.316 µM", "result": 121, "unit": "%"}, {"measurement": "viability, T/C", "setting": "second compound 0.0949 µM, first compound 1 µM", "result": 106, "unit": "%"}, {"measurement": "viability, T/C", "setting": "second compound 0.0949 µM, first compound 3.16 µM", "result": 97.9, "unit": "%"}, {"measurement": "viability, T/C", "setting": "second compound 0.0949 µM, first compound 10 µM", "result": 61.5, "unit": "%"}, {"measurement": "viability, T/C", "setting": "second compound 0.3 µM, first compound 0.0316 µM", "result": 122, "unit": "%"}, {"measurement": "viability, T/C", "setting": "second compound 0.3 µM, first compound 0.1 µM", "result": 115, "unit": "%"}, {"measurement": "viability, T/C", "setting": "second compound 0.3 µM, first compound 0.316 µM", "result": 117, "unit": "%"}, {"measurement": "viability, T/C", "setting": "second compound 0.3 µM, first compound 1 µM", "result": 93.1, "unit": "%"}, {"measurement": "viability, T/C", "setting": "second compound 0.3 µM, first compound 3.16 µM", "result": 100, "unit": "%"}, {"measurement": "viability, T/C", "setting": "second compound 0.3 µM, first compound 10 µM", "result": 71.4, "unit": "%"}, {"measurement": "viability, T/C", "setting": "second compound 0.949 µM, first compound 0.0316 µM", "result": 111, "unit": "%"}, {"measurement": "viability, T/C", "setting": "second compound 0.949 µM, first compound 0.1 µM", "result": 113, "unit": "%"}, {"measurement": "viability, T/C", "setting": "second compound 0.949 µM, first compound 0.316 µM", "result": 118, "unit": "%"}, {"measurement": "viability, T/C", "setting": "second compound 0.949 µM, first compound 1 µM", "result": 100, "unit": "%"}, {"measurement": "viability, T/C", "setting": "second compound 0.949 µM, first compound 3.16 µM", "result": 100, "unit": "%"}, {"measurement": "viability, T/C", "setting": "second compound 0.949 µM, first compound 10 µM", "result": 78.2, "unit": "%"}, {"measurement": "viability, T/C", "setting": "second compound 3 µM, first compound 0.0316 µM", "result": 105, "unit": "%"}, {"measurement": "viability, T/C", "setting": "second compound 3 µM, first compound 0.1 µM", "result": 107, "unit": "%"}, {"measurement": "viability, T/C", "setting": "second compound 3 µM, first compound 0.316 µM", "result": 116, "unit": "%"}, {"measurement": "viability, T/C", "setting": "second compound 3 µM, first compound 1 µM", "result": 90.9, "unit": "%"}, {"measurement": "viability, T/C", "setting": "second compound 3 µM, first compound 3.16 µM", "result": 88.8, "unit": "%"}, {"measurement": "viability, T/C", "setting": "second compound 3 µM, first compound 10 µM", "result": 72.2, "unit": "%"}]}
